Seven compounds from US9334289B2, “Cephem compound having catechol or pseudo-catechol structure” (SHIONOGI & CO., LTD., priority 2011, dated 2016) can be followed below.

Common to all, as to experiment: MIC, CLSI broth microdilution, Test Example 2
What all share (assay type): cell-based
(In general: Dilution methods test growth across graded concentrations, often in twofold steps.)

One assay concerns A. baumannii SR01331. Conditions: Acinetobacter baumannii, SR01331; PER-1, OXA-23.51 ESBL- & OXA-type carbapenemase producing strain; cation-adjusted Iso-Sensitest broth containing human Apo-transferrin; 5×10^5 cfu/mL; read-out: Minimum Inhibitory Concentration (MIC) A. baumannii SR01331. As for the experimental part: (§1) Measurement of Minimum Inhibitory Concentration (MIC: μg/mL) was conducted according to CLSI (Clinical and Laboratory Standards Institute) method, and the amount of bacteria for inoculation was 5×10^5 cfu/mL, and cation-adjusted Iso-Sensitest broth containing human Apo-transferrin was used as a test medium, and the experiment was conducted using broth microdilution method.

For a further assay, the system named is E. cloacae NCTC13464. Conditions: Enterobacter cloacae, NCTC13464; CTX-M group 9 ESBL producing strain; cation-adjusted Iso-Sensitest broth containing human Apo-transferrin; 5×10^5 cfu/mL; read-out: Minimum Inhibitory Concentration (MIC) E. cloacae NCTC 13464. As for the experimental part:
as §1

For another assay, the system named is E. coli ATCCBAA-196. Conditions: Escherichia coli, ATCCBAA196; TEM-10 ESBL producing strain; cation-adjusted Iso-Sensitest broth containing human Apo-transferrin; 5×10^5 cfu/mL; read-out: Minimum Inhibitory Concentration (MIC) E. coli ATCC BAA-196. As for the experimental part:
as §1

The subject of the next assay is E. coli ATCCBAA-200. Conditions: Escherichia coli, ATCCBAA200; SHV-4 ESBL producing strain; cation-adjusted Iso-Sensitest broth containing human Apo-transferrin; 5×10^5 cfu/mL; read-out: Minimum Inhibitory Concentration (MIC) E. coli ATCC BAA-200. As for the experimental part: as §1
Another assay relates to E. coli SR01337. Conditions: Escherichia coli, SR01337; TEM-1 ESBL producing strain; cation-adjusted Iso-Sensitest broth containing human Apo-transferrin; 5×10^5 cfu/mL; read-out: Minimum Inhibitory Concentration (MIC) E. coli SR01337. How it is done:
as §1

The next assay has as its system K. pneumoniae ATCC700603. Conditions: Klebsiella pneumoniae, ATCC700603; SHV18 ESBL producing strain; cation-adjusted Iso-Sensitest broth containing human Apo-transferrin; 5×10^5 cfu/mL; read-out: Minimum Inhibitory Concentration (MIC) K. pneumoniae ATCC 700603. As for the experimental part:
as §1

The next assay deals with P. aeruginosa SR01332. Conditions: Pseudomonas aeruginosa, SR01332; VIM-11 MBL producing strain (carbapenem resistance strain); cation-adjusted Iso-Sensitest broth containing human Apo-transferrin; 5×10^5 cfu/mL; read-out: Minimum Inhibitory Concentration (MIC) P. aeruginosa SR01332. How it is done: as §1
The next assay relates to P. aeruginosa SR01335. Conditions: Pseudomonas aeruginosa, SR01335; VIM-1 like MBL producing strain (carbapenem resistance strain); cation-adjusted Iso-Sensitest broth containing human Apo-transferrin; 5×10^5 cfu/mL; read-out: Minimum Inhibitory Concentration (MIC) P. aeruginosa SR01335. How it is done:
as §1

Each structure is given as a SMILES string. Converted amounts (≈) assume the structure as drawn.

As for `Nc1nc(/C(=N/OC(C(=O)[O-])C(=O)[O-])C(=O)N[C@@H]2C(=O)N3C(C(=O)[O-])=C(C[N+]45CCC(CNC(=O)c6ccc(O)c(O)c6Cl)(CC4)CC5)CS[C@H]23)cs1.[Na+].[Na+]` (some centres unmarked) [Comparative Compound 2, reference compound], the MIC in the assay on A. baumannii SR01331 was above 32 µg/mL; with E. cloacae NCTC13464, 0.5 µg/mL; in the assay on E. coli ATCCBAA-196 it was 0.5 µg/mL; with E. coli ATCCBAA-200, 1 µg/mL; in the assay with E. coli SR01337 it was above 32 µg/mL; in the assay on K. pneumoniae ATCC700603 it was 0.5 µg/mL. The MIC in the assay with P. aeruginosa SR01332 turned out to be 32 µg/mL; with P. aeruginosa SR01335, 4 µg/mL.
As for `CC(C)(O/N=C(\C(=O)N[C@@H]1C(=O)N2C(c3nnn[n-]3)=C(C[N@+]34CCC[C@H]3CN(C(=O)c3cc(O)c(O)c(F)c3)CC4)CS[C@H]12)c1nc(N)sc1Cl)C(=O)[O-].[Na+]` [Compound I-34], the MIC with A. baumannii SR01331 is 1 µg/mL; with E. cloacae NCTC13464 it was 0.5 µg/mL; in the assay with E. coli ATCCBAA-196, 0.063 µg/mL; in the assay with E. coli ATCCBAA-200, 0.25 µg/mL; with E. coli SR01337 it was at most 0.031 µg/mL; with K. pneumoniae ATCC700603, 0.5 µg/mL. Also, the figures for the MIC in the assay with P. aeruginosa SR01332 and with P. aeruginosa SR01335 were 4 µg/mL and 2 µg/mL, respectively.
As for `Nc1nc(/C(=N/O[C@@H](CC(=O)[O-])C(=O)[O-])C(=O)N[C@@H]2C(=O)N3C(c4nnn[n-]4)=C(C[N+]4(CCNC(=O)c5ccc(O)c(O)c5Cl)CCCCC4)CS[C@H]23)cs1.[Na+].[Na+]` [Compound I-67], the MIC in the assay on A. baumannii SR01331 is 0.25 µg/mL; with E. cloacae NCTC13464, 0.063 µg/mL; with E. coli ATCCBAA-196, at most 0.031 µg/mL; in the assay with E. coli ATCCBAA-200 it was 0.063 µg/mL; in the assay with E. coli SR01337 it was at most 0.031 µg/mL; in the assay with K. pneumoniae ATCC700603 it was at most 0.031 µg/mL. The MIC in the assay with P. aeruginosa SR01332 and in the assay on P. aeruginosa SR01335 was 2 µg/mL each time.
With `Nc1nc(/C(=N/O[C@@H](CC(=O)[O-])C(=O)[O-])C(=O)N[C@@H]2C(=O)N3C(c4nnn[n-]4)=C(C[N+]4(CCNC(=O)c5cc(Cl)c(O)c(O)c5Cl)CCCC4)CS[C@H]23)cs1.[Na+].[Na+]` [Compound I-60], the MIC in the assay on A. baumannii SR01331 is 0.5 µg/mL; in the assay with E. cloacae NCTC13464, 0.063 µg/mL; in the assay with E. coli ATCCBAA-196, at most 0.031 µg/mL; in the assay with E. coli ATCCBAA-200, 0.063 µg/mL; with E. coli SR01337, at most 0.031 µg/mL; in the assay with K. pneumoniae ATCC700603 it was at most 0.031 µg/mL. Further, the MIC in the assay with P. aeruginosa SR01332 was 4 µg/mL; in the assay with P. aeruginosa SR01335, 1 µg/mL.
In the case of `Nc1nc(/C(=N/O[C@@H](CC(=O)[O-])C(=O)[O-])C(=O)N[C@@H]2C(=O)N3C(c4nnn[n-]4)=C(C[N+]45CCC[C@H]4CN(C(=O)c4ccc(O)c(O)c4Cl)CC5)CS[C@H]23)cs1.[Na+].[Na+]` (some centres unmarked) [Compound I-57], the MIC in the assay with A. baumannii SR01331 was 0.5 µg/mL; in the assay with E. cloacae NCTC13464, 0.25 µg/mL; with E. coli ATCCBAA-196, 0.063 µg/mL; with E. coli ATCCBAA-200, 0.25 µg/mL; in the assay on E. coli SR01337 it was 0.063 µg/mL; in the assay on K. pneumoniae ATCC700603, 0.125 µg/mL. The MIC came to 8 µg/mL in the assay with P. aeruginosa SR01332 and 1 µg/mL with P. aeruginosa SR01335.
Regarding `Nc1nc(/C(=N/O[C@@H](CC(=O)O)C(=O)[O-])C(=O)N[C@@H]2C(=O)N3C(c4nnn[nH]4)=C(C[N+]4(CCNC(=O)c5ccc(O)c(O)c5F)CCCC4)CS[C@H]23)cs1` [Compound I-102], the MIC was 0.25 µg/mL (≈ 0.317 µM) with A. baumannii SR01331; 0.063 µg/mL (≈ 0.0798 µM) with E. cloacae NCTC13464; at most 0.031 µg/mL with E. coli ATCCBAA-196; 0.063 µg/mL (≈ 0.0798 µM) in the assay with E. coli ATCCBAA-200; at most 0.031 µg/mL in the assay on E. coli SR01337; at most 0.031 µg/mL with K. pneumoniae ATCC700603. For the same compound, the MIC in the assay on P. aeruginosa SR01332 was found to be 4 µg/mL (≈ 5.06 µM); in the assay on P. aeruginosa SR01335, 1 µg/mL (≈ 1.27 µM).
In the case of `CC(C)(O/N=C(\C(=O)N[C@@H]1C(=O)N2C(c3nnn[n-]3)=C(C[N+]3(CCNC(=O)c4ccc(O)c(O)c4Cl)CCCCC3)CS[C@H]12)c1csc(N)n1)C(=O)[O-].[Na+]` [Compound I-69], the MIC was 0.5 µg/mL in the assay on A. baumannii SR01331; 0.063 µg/mL in the assay with E. cloacae NCTC13464; 0.125 µg/mL in the assay on E. coli ATCCBAA-196; 0.125 µg/mL in the assay on E. coli ATCCBAA-200; at most 0.031 µg/mL in the assay on E. coli SR01337; 0.125 µg/mL in the assay on K. pneumoniae ATCC700603. The MIC in the assay on P. aeruginosa SR01332 and in the assay on P. aeruginosa SR01335 was 2 µg/mL each time.
